# Laboratory results published in US10888576B2, “Composition of HMB and ATP and methods of use” (Metabolic Technologies, Inc., priority 2018, dated 2021).
# How the values were obtained:
# Format in all cases: in vivo, human
# resistance-trained males [1] = test: Skeletal muscle hypertrophy: ultrasonography muscle thickness of quadriceps (VL and VI); conditions: for 12-week increases in quadriceps thicknesses: 12 weeks
# resistance-trained males [2] = test: Wingate test peak power (maximal cycling); conditions: for Wingate PP gains in power from baseline: after the first week of the increased training (overreaching); for Wingate PP decrease: during the 2-week overreaching cycle
# Experimental: Muscle power was assessed during maximal cycling (Wingate Test) and jumping movements. During the cycling test, volunteers were instructed to cycle against a predetermined resistance (7.5% of body weight) as fast as possible for 10 seconds (36). The saddle height was adjusted to the individual's height to produce a 5-10° knee flexion while the foot was in the low position of the central void. A standardized verbal stimulus was provided to each participant. Power output was recorded in real time during the 10-second sprint test, by a computer connected to the standard cycle ergometer (Monark model 894e, Vansbro, Sweden). Peak power (PP) was recorded using Monark Anaerobic Wingate Software, Version 1.0 (Monark, Vansbro, Sweden). The ICC of muscle peak power was 0.96. Prior to the study, participants were randomly assigned to receive either 3 g per day of HMB Free Acid (HMB) (combined with food-grade orange flavors and sweeteners), 400 mg per day of ATP (PEAK ATP®; TSI, Inc.), a combination of both 3 g of HMB and 400 mg per day of ATP, or a placebo (food-grade orange flavors and sweeteners) divided equally into three servings daily with the first serving given 30 minutes prior to exercise and the remaining two servings daily with the mid-day and evening meals. On the non-training days participants were instructed to consume one serving with each of three separate meals. The supplementation was continued daily throughout the training and testing protocols. […] This dosage would be equivalent to a 1 gram Ca-HMB dosage. All participants performed a high volume resistance training protocol during the 12-week study. The phases of the study and measurements taken are shown in FIG. 1, and the exercise protocols for each phase of the study are shown in Tables 1 to 3. The training was divided into 3 phases, with Phase 1 consisting of daily undulating periodization (weeks 1 to 8), Phase 2 consisting of the overreaching cycle (weeks 9 and 10), and Phase 3 consisting of the taper cycle (weeks 11 and 12).
# C-reactive protein (CRP) = test: Serum C-reactive protein ELISA; conditions: Mean ± SEM
# Experimental: (§1) Prior to the study, participants were randomly assigned to receive either 3 g per day of HMB Free Acid (HMB) (combined with food-grade orange flavors and sweeteners), 400 mg per day of ATP (PEAK ATP®; TSI, Inc.), a combination of both 3 g of HMB and 400 mg per day of ATP, or a placebo (food-grade orange flavors and sweeteners) divided equally into three servings daily with the first serving given 30 minutes prior to exercise and the remaining two servings daily with the mid-day and evening meals. On the non-training days participants were instructed to consume one serving with each of three separate meals. The supplementation was continued daily throughout the training and testing protocols. Each serving was formulated with 1 gram of HMB free acid to account for fill and emptying variation and achieve a minimum effective dosage of 0.800 grams. This dosage would be equivalent to a 1 gram Ca-HMB dosage.
# (§2) All blood draws throughout the study were obtained via venipuncture after a 12-hour fast by a trained phlebotomist. Whole blood was collected and transferred into appropriate tubes for obtaining serum and plasma and centrifuged at 1,500 g for 15 min at 4° C. Resulting serum and plasma were then aliquoted and stored at −80° C. until subsequent analyses.
# (§3) Samples were thawed one time and analyzed in duplicate for each analyte. All blood draws were scheduled at the same time of day to negate confounding influences of diurnal hormonal variations. Serum total and free testosterone, cortisol, and C-reactive protein (CRP) were assayed via ELISA kits obtained from Diagnostic Systems Laboratories (Webster, Tex.). All hormones were measured in the same assay on the same day to avoid compounded interassay variance. […] Serum creatine kinase (CK) was measured using colorimetric procedures at 340 nm (Diagnostics Chemicals, Oxford, Conn.). Twenty-four hour urine collections were made and 3-methylhistine was determined by previously described methods (Rathmacher et al 1992 and Wilson et al, 2013).
# resistance-trained males [3] = test: Muscle strength: 1RM of back squat, bench press and deadlift (total strength); conditions: for change in total strength during the overreaching cycle: from week 8 to week 10; for total strength gains: over the 12-week study, 1-RM of squat, bench press, deadlift
# Experimental: After familiarization with procedures, muscle strength was assessed via 1RM testing of the back squat, bench press, and […]. Each lift was performed as described by the International Powerlifting Federation rules (44). Body composition (lean body mass, fat mass, and total mass) was determined by dual x-ray absorptiometry (DXA; Lunar Prodigy enCORE 2008, Madison, Wis., U.S.A.). Skeletal muscle hypertrophy was determined via the combined changes in ultrasonography-determined muscle thickness of the vastus lateralis (VL) and vastus intermedius (VI) muscles. The intraclass correlation coefficient (ICC) for the test-retest of muscle thickness measurements was r=0.97. Prior to the study, participants were randomly assigned to receive either 3 g per day of HMB Free Acid (HMB) (combined with food-grade orange flavors and sweeteners), 400 mg per day of ATP (PEAK ATP®; TSI, Inc.), a combination of both 3 g of HMB and 400 mg per day of ATP, or a placebo (food-grade orange flavors and sweeteners) divided equally into three servings daily with the first serving given 30 minutes prior to exercise and the remaining two servings daily with the mid-day and evening meals. On the non-training days participants were instructed to consume one serving with each of three separate meals. The supplementation was continued daily throughout the training and testing protocols. […] This dosage would be equivalent to a 1 gram Ca-HMB dosage. All participants performed a high volume resistance training protocol during the 12-week study. The phases of the study and measurements taken are shown in FIG. 1, and the exercise protocols for each phase of the study are shown in Tables 1 to 3. The training was divided into 3 phases, with Phase 1 consisting of daily undulating periodization (weeks 1 to 8), Phase 2 consisting of the overreaching cycle (weeks 9 and 10), and Phase 3 consisting of the taper cycle (weeks 11 and 12).
# cortisol = test: Serum cortisol ELISA; conditions: for effect on cortisol levels: during the study, vs placebo; for Cortisol: Mean ± SEM
# Experimental: as §1, §2, §3
# resistance-trained males [4] = test: Perceived Recovery Status (PRS) scale; conditions: for effect on PRS: 12-week study, vs placebo; for PRS (perceived recovery score): scale of 0-10, Mean ± SEM
# Experimental: as §1
# […] The PRS scale consists of values between 0-10, with 0-2 being very poorly recovered and with anticipated declines in performance, 4-6 being low to moderately recovered and expected similar performance, and 8-10 representing high perceived recovery with expected increases in performance.
Compound,12-week increases in quadriceps thicknesses (resistance-trained males [1]) [mm],Quad (quadriceps muscle thickness) (resistance-trained males [1]; week 0 (baseline)) [mm],Quad (quadriceps muscle thickness) (resistance-trained males [1]; week 4) [mm],Quad (quadriceps muscle thickness) (resistance-trained males [1]; week 8) [mm],Quad (quadriceps muscle thickness) (resistance-trained males [1]; week 12) [mm],Wingate PP gains in power from baseline (resistance-trained males [2]) [%],Wingate PP decrease (resistance-trained males [2]) [%],CRP (C-reactive protein (CRP); week 0 (baseline)) [mg/L],CRP (C-reactive protein (CRP); week 1) [mg/L],CRP (C-reactive protein (CRP); week 4) [mg/L],CRP (C-reactive protein (CRP); week 8) [mg/L],CRP (C-reactive protein (CRP); week 9 (overreaching)) [mg/L],CRP (C-reactive protein (CRP); week 10 (overreaching)) [mg/L],CRP (C-reactive protein (CRP); week 12) [mg/L],change in total strength during the overreaching cycle (resistance-trained males [3]) [%],total strength gains (resistance-trained males [3]) [kg],effect on cortisol levels (cortisol),Cortisol (cortisol; week 0 (baseline)) [µg/dL],Cortisol (cortisol; week 1) [µg/dL],Cortisol (cortisol; week 4) [µg/dL],further results
"Nc1ncnc2c1ncn2[C@@H]1O[C@H](COP(=O)(O)OP(=O)(O)OP(=O)(O)O)[C@@H](O)[C@H]1O [ATP, Adenosine-5′-triphosphate]",4.9±1.0,50.9 ± 0.9,53.4 ± 1.3,54.8 ± 1.7,55.8 ± 1.8,9.0±1.6,2.9±0.7,1.4 ± 0.4,1.1 ± 0.1,1.2 ± 0.2,1.9 ± 0.6,1.7 ± 0.6,1.1 ± 0.1,1.2 ± 0.2,−2.±0.5,55.3 ± 6.0,did not affect cortisol levels,20.9 ± 1.2,20.5 ± 1.3,18.4 ± 1.4,Cortisol (cortisol; week 8): 19.0 ± 0.4 µg/dL; Cortisol (cortisol; week 9 (overreaching)): 21.5 ± 0.4 µg/dL; Cortisol (cortisol; week 10 (overreaching)): 22.6 ± 0.2 µg/dL; Cortisol (cortisol; week 12): 19.7 ± 0.6 µg/dL; effect on PRS (resistance-trained males [4]): improved PRS scores after the overreaching cycle at weeks 10 and 12; PRS (perceived recovery score) (resistance-trained males [4]; week 0 (baseline)): 9.6 ± 0.2; PRS (perceived recovery score) (resistance-trained males [4]; week 1): 4.9 ± 0.4; PRS (perceived recovery score) (resistance-trained males [4]; week 4): 7.5 ± 0.3; PRS (perceived recovery score) (resistance-trained males [4]; week 8): 8.2 ± 0.3; PRS (perceived recovery score) (resistance-trained males [4]; week 9 (overreaching)): 5.5 ± 0.4; PRS (perceived recovery score) (resistance-trained males [4]; week 10 (overreaching)): 5.5 ± 0.4; PRS (perceived recovery score) (resistance-trained males [4]; week 12): 8.6 ± 0.4
"CC(C)(O)CC(=O)O [HMB-FA, β-hydroxy-β-methylbutyric acid]",7.1±1.2,50.7 ± 1.5,53.6 ± 1.4,56.0 ± 1.4,57.8 ± 1.6,10.2±1.6,0.3±0.9,1.0 ± 0.1,1.3 ± 0.3,1.0 ± 0.1,0.9 ± 0.01,1.0 ± 0.1,1.8 ± 0.8,1.1 ± 0.1,−0.5±1.2,77.1 ± 5.6,decreased cortisol levels,21.5 ± 1.4,20.3 ± 1.2,20.9 ± 1.0,Cortisol (cortisol; week 8): 18.8 ± 1.5 µg/dL; Cortisol (cortisol; week 9 (overreaching)): 19.6 ± 1.1 µg/dL; Cortisol (cortisol; week 10 (overreaching)): 18.6 ± 1.2 µg/dL; Cortisol (cortisol; week 12): 17.4 ± 1.2 µg/dL; effect on PRS (resistance-trained males [4]): improved PRS; PRS (perceived recovery score) (resistance-trained males [4]; week 0 (baseline)): 9.1 ± 0.3; PRS (perceived recovery score) (resistance-trained males [4]; week 1): 6.3 ± 0.3; PRS (perceived recovery score) (resistance-trained males [4]; week 4): 7.6 ± 0.3; PRS (perceived recovery score) (resistance-trained males [4]; week 8): 8.5 ± 0.3; PRS (perceived recovery score) (resistance-trained males [4]; week 9 (overreaching)): 8.0 ± 0.2; PRS (perceived recovery score) (resistance-trained males [4]; week 10 (overreaching)): 7.7 ± 0.2; PRS (perceived recovery score) (resistance-trained males [4]; week 12): 9.5 ± 0.2
